Results from patent US10274490B2, “Magnetic labeling of bacteria” (The General Hospital Corporation, priority 2012, dated 2019).

Legend:
E. coli (Gram-negative) = test: Confocal microscopy control experiment; type: cell-based, Escherichia coli; conditions: Crystal Violet-TCO stained, decolorized
Experimental: (§1) Bacterial cells in media were first washed with phosphate buffered saline solution (PBS). For μNMR measurements, absorbance measurements, confocal microscopy, and transmission electron microscopy (TEM), the bacteria (10^8 in 100 μl) were stained with 200 μM CV-TCO in 20% ethanol solution containing 8 mg/ml ammonium oxalate for 5 min. at room temperature, and washed with PBS. Then the bacteria were treated with Gram Iodine solution for 1 min. and decolorized with 95% ethanol solution. For μNMR and confocal microscopy, bacteria were incubated with 50 μg/ml MFNP-Tz in PBS for 20 min. at room temperature, and washed twice with PBS. For confocal microscopy, labeled bacteria were mounted on microscopic slides with Vectashield containing propium iodide (Vector Laboratories), and imaged. For TEM, the stained and decolorized bacteria were incubated with 50 μg/ml GNP-Tz in PBS for 1 h, washed with PBS, and dehydrated with graded ethanol series before applying onto a carbon grid (Ted Pella).
The green channel (left) indicates MNFP-Tz, and the red channel (right) indicates propidium iodide. (Scale bar=5 μm).

S. aureus [1] = test: Confocal microscopy (MFNP-Tz) and TEM (GNP-Tz) of Crystal Violet-TCO stained bacteria; type: cell-based, Staphylococcus aureus
Experimental: as §1
The left, middle, and right panels show images of the red channel, green channel, and a merged image of the red and green channels, respectively (Red: propidium iodide for nuclear staining; Green: MNFP-Tz staining; Scale bar=10 μm).
Gold nanoparticles were used instead of magnetic nanoparticles to obtain higher contrast.

[2] = Molar extinction coefficient; type: physicochemical; conditions: 592 nm
S. aureus [3] = test: μNMR sensitivity of the assay, serially diluted bacterial samples; type: cell-based, Staphylococcus aureus; conditions: Crystal Violet-TCO and MFNP-Tz
Experimental: as §1
To measure the sensitivity of the assay, measurements with serially diluted bacterial samples were performed and established a detection limit of about 4,000 bacteria with the experimental set-up used. […] Limit of detection was ˜4000 CFU.

[4] = test system: S. aureus (Gram-positive); test: Gram staining, bright field microscopy; type: cell-based, Staphylococcus aureus; conditions: 1 mM Crystal Violet-TCO 3 min, iodine, 95% ethanol, Safranin counterstain
Experimental: Bacterial cells were smeared onto microscopic slides, and stained with standard crystal violet (20 mM) or CV-TCO (1 mM) in 20% ethanol solution containing 8 mg/ml ammonium oxalate for 3 min. After washing with deionized water, slides were treated with Gram Iodine (BD Biosciences), decolorized with 95% ethanol solution, and counterstained with Gram safranin (BD Biosciences). Slides were observed using a bright field light microscope.
To test the efficacy of Crystal Violet-TCO as a staining agent for Gram-positive bacteria, three representative samples were prepared: Staphylococcus aureus (S. aureus; Gram-positive), Escherichia coli (E. coli; Gram-negative), and the mixture of both bacterial species. Bacterial smears on glass slides were stained with a solution of Crystal Violet-TCO (1 mM) or Crystal Violet for 3 min., followed by treatment with Gram's iodine solution for one minute, decolorization with 95% ethanol, and counterstaining with red Safranin solution.

Gram-positive species = test: μNMR cellular relaxivity of bacteria stained with Crystal Violet-TCO and labeled with MFNP-Tz; type: cell-based; conditions: panel of bacterial species
Experimental: Bacterial cells in media were first washed with phosphate buffered saline solution (PBS). For μNMR measurements, absorbance measurements, confocal microscopy, and transmission electron microscopy (TEM), the bacteria (10^8 in 100 μl) were stained with 200 μM CV-TCO in 20% ethanol solution containing 8 mg/ml ammonium oxalate for 5 min. at room temperature, and washed with PBS. Then the bacteria were treated with Gram Iodine solution for 1 min. and decolorized with 95% ethanol solution. For μNMR and confocal microscopy, bacteria were incubated with 50 μg/ml MFNP-Tz in PBS for 20 min. at room temperature, and washed twice with PBS. […]
To test whether bacteria labelled with Crystal Violet-TCO could be magnetically labeled via cycloaddition to the TCO group, bacteria stained with Crystal Violet-TCO were incubated with magnetofluorescent nanoparticles modified with tetrazine (MFNP-Tz). […] The T2 relaxation values of samples were measured using a miniaturized μNMR system. For comparative analyses, the absorption (at 595 nm) of the same samples was also measured. Cellular relaxivity (r2) was obtained by normalizing the measured 1/T2 values with bacterial concentration, and the r2 differences (Δr2) between targeted and control samples were calculated. […]

[5] = test system: Gram-positive and Gram-negative bacteria; test: μNMR detection before and after decolorization; type: cell-based
Experimental: as §1
The magnetic labeling detection strategy using Crystal Violet-TCO can be applied to detect both Gram-positive and Gram-negative bacteria. A modified protocol was adopted in which staining was performed without the decolorization process, which results in labeling both Gram-positive and Grain-negative bacteria, since the Gram-negative bacteria also retain the Crystal Violet-TCO. […]

[6] = test system: S. aureus (Gram-positive); test: Absorbance at 595 nm / UV-visible spectrometry of stained bacteria; type: cell-based, Staphylococcus aureus; conditions: E. coli (G−) as comparison
Experimental: as §1

Nocardia Farcinica = test: Bioorthogonal labeling with Trehalose-TCO and Oregon Green-Tz, cell fluorescence microscopy; type: cell-based
Experimental: Nocardia Farcinica bacteria (ATCC 3308) at an OD600 of 0.8 in growth medium (0.1 mL) was added 100 μM Trehalose-TCO, Trehalose-fluorescein or DMSO (as a control) in growth media (1% DMSO). Bacteria were incubated at 37° C. with shaking for 16 h. Bacteria were then centrifuged (7 min., 8000 rpm) and washed (2×100 μL PBS solution containing 2% fetal bovine serum (FBS) and 1 mg/mL bovine serum albumin (BSA) PBS-F).
Bacteria treated with Trehalose-TCO were incubated with 50 μg/mL MFNP-Tz MNFP-Tz or 10 μM Oregon Green-Tz for 20 min. in PBS-F. Bacteria were then centrifuged (7 min., 8000 rpm) and washed (2×100 μL PBS-F). Bacteria were then fixed with 10% PFA in PBS (100 μL) for 20 min., centrifuged and resuspended in 10 μL PBS. 3 μL were spread out on a 96 wells plates (Nunc, Cat No 137103 (Roskilde, Denmark, pre-wet with PBS-F). Bacteria were dried out in an incubator 37 C for 30 min. then mounting media containing […] was added to samples. Imaging was done on a DeltaVision microscope (Applied Precision Instruments) at 60×.

Gram-positive bacteria [7] = test: Competitive inhibition of vancomycin-TCO labeling by unmodified vancomycin; conditions: 1-200 μM unmodified vancomycin added to 20 μM vancomycin-TCO; fluorescence and magnetic resonance; all Gram-positive bacteria; read-out: inhibition binding constant (Ki)
Experimental: For two-step labeling, the washed cells were incubated with 1-20 μM vancomycin TCO in PBS-F at room temperature for 30 min. For competition studies, 1-200 μM unmodified vancomycin was added to 20 μM vancomycin-TCO.
To further characterize the binding properties of vancomycin-TCO, competitive inhibition studies were performed in which unmodified vancomycin was introduced together with vancomycin-TCO, before reacting with MFNP-Tz.
FIGS. 8A and 8B show the results of competition studies of vancomycin-TCO using both fluorescence (FIG. 8A) and magnetic resonance (FIG. 8B) measurements. […] The inhibition binding constant (Ki) was about 6 μM for all Gram-positive bacteria, a value which was similar to that of vancomycin-TCO.

Gram-positive bacteria [8] = test: Magnetic resonance detection of bacteria labeled with daptomycin-TCO and MFNP-Tz; type: cell-based; conditions: daptomycin-TCO then MFNP-Tz
Experimental: (§2) For two-step labeling using Daptomycin-TCO, the drug conjugates were incubated in buffer solution containing 5 mM 4-(2-hydroxyethyl)-1-piperazineethanesulfonic acid (HEPES), 5 mM CaCl2, 2% FBS, and 1 mg/ml BSA at room temperature for 30 min. After washing twice with PBS-F, bacterial cells were incubated with 50 μg/ml MFNP-Tz in PBS-F for 20 min. at room temperature.
All μNMR measurements were performed using the portable NMR system recently developed for point-of-care operations as described by Issadore, et al. Lab Chip 2011, 11, 2282-87. The polarizing magnetic field was ˜0.5 T. Transverse relaxation times were measured on 1-2 μL sample volumes, using Carry-Purcell-Meiboom-Gill pulse sequences with the following parameters: echo time, 3 ms; repetition time, 4 s; number of 180° pulses per scan, 900; number of scans, 7.
(§3) Daptomycin-TCO was used to magnetically label bacteria using methods similar to those described in Example 1.

Gram-positive bacteria [9] = test: Fluorescence spectrometry of bacteria labeled with daptomycin-TCO and MFNP-Tz; type: cell-based; conditions: daptomycin-TCO at various concentrations, then MFNP-Tz
Experimental: as §2
For fluorescence spectrometry, μNMR measurements, and flow cytometry, the cells were fixed in 10% paraformaldehyde (PFA) for 30 min., and then exchanged into PBS solution. Fluorescence measurements were taken using the Safire2 microplate reader (TECAN, Mannedorf, Switzerland). Increased relative fluorescence intensity (% RFU) values were calculated as 100×(Itarget−Inon)/Inon, where Itarget and Inon are intensity values of targeted and non-targeted bacteria, respectively. Flow cytometry was performed using LSRII (BD Biosciences). All labeling experiments and measurements were performed at least 3 times to confirm the reproducibility and robustness of the method.
as §3

CC[N+](CCNC(=O)OC1CC/C=C/CCC1)=C1C=CC(=C(c2ccc(N(C)C)cc2)c2ccc(N(C)C)cc2)C=C1 (centres unmarked) [Crystal Violet-TCO, (E)-N-(4-(bis(4-(dimethylamino)phenyl)methylene)cyclohexa-2,5-dien-1-ylidene)-2-(((cyclooct-4-en-1-yloxy)carbonyl)amino)-N-ethylethanaminium chloride]
confocal microscopy MFNP-Tz signal (E. coli (Gram-negative)): absence of MFNP-Tz signal | transmission electron microscopy observation (S. aureus [1]; CV-TCO then GNP-Tz): Gold nanoparticles were found distributed throughout the bacterial surface | confocal microscopy observation (S. aureus [1]; Crystal Violet-TCO then MFNP-Tz): uniform and high fluorescence signals in the bacterial cell wall | molar extinction coefficient ε592 [2]: 133013 L/mol/cm | detection limit (S. aureus [3]): about 4,000 bacteria | Limit of detection (S. aureus [3]; ΔR2): ~4000 CFU | colour after Gram staining and decolorization [4]: remained purple | cellular relaxivity of Gram-positive species (Gram-positive species): significantly higher cellular relaxivity values when compared to Gram-negative bacteria | μNMR detection ([5]; after decolorization): only Gram-positive species retained their signals | μNMR detection ([5]; before decolorization): both Gram-positive and negative bacteria could be magnetically labeled and detected | UV absorbance of stained bacteria [6]: intense absorption at 595 nm

C[C@]1(O[C@H]2O[C@H](CO)C(O)C(O)C2NC(=O)OC2CC/C=C/CCC2)OC(CO)[C@@H](O)C(O)C1O (stereo partly drawn) [Trehalose-TCO, 1-deoxy-α-D-gluco-hept-2-ulopyranosyl-(2→1)-2-deoxy-2-((E)-cyclooct-4-en-1-yl carbamate)-α-D-glucopyranoside]
kinetics of incorporation (Nocardia Farcinica; 0-16 h, subsequent labeling with Oregon Green-Tz): gradual increase in the extent of labeling | cell fluorescence (Nocardia Farcinica; 100 μM Trehalose-TCO 16 h, then 10 μM Oregon Green-Tz): Bright green fluorescence of the cells is observed

CN(C)c1ccc(C(=C2C=CC(=[N+](C)C)C=C2)c2ccc(N(C)C)cc2)cc1 [crystal violet, reference compound]
molar extinction coefficient ε592 [2]: 89146 L/mol/cm

CN[C@H](CC(C)C)C(=O)N[C@H]1C(=O)N[C@@H](CC(N)=O)C(=O)N[C@H]2C(=O)N[C@H]3C(=O)N[C@H](C(=O)N[C@H](C(=O)O)c4cc(O)cc(O)c4-c4cc3ccc4O)[C@H](O)c3ccc(c(Cl)c3)Oc3cc2cc(c3O[C@@H]2O[C@H](CO)[C@@H](O)[C@H](O)[C@H]2O[C@H]2C[C@](C)(N)[C@H](O)[C@H](C)O2)Oc2ccc(cc2Cl)[C@H]1O [vancomycin]
Ki (Gram-positive bacteria [7]): ~6 µM

CCCCCCCCCC(=O)N[C@@H](Cc1c[nH]c2ccccc12)C(=O)N[C@@H](CC(N)=O)C(=O)N[C@@H](CC(=O)O)C(=O)N[C@@H]1C(=O)NCC(=O)N[C@@H](CCCNC(=O)OC2CC/C=C/CCC2)C(=O)N[C@@H](CC(=O)O)C(=O)N[C@H](C)C(=O)N[C@@H](CC(=O)O)C(=O)NCC(=O)N[C@H](CO)C(=O)N[C@@H]([C@@H](C)CC(=O)O)C(=O)N[C@@H](CC(=O)c2ccccc2N)C(=O)O[C@@H]1C (some centres unmarked) [daptomycin-TCO]
cellular relaxivity (Gram-positive bacteria [8]): 1.32 s^−1[CFU/μL]^−1 | increased relative fluorescence intensities (Gram-positive bacteria [9]): up to 220%
